pIC50: −log10 of the molar value.
molecular target: sigma receptor (Cavia porcellus); test: In vitro binding affinity measured on sigma opioid receptor using [3H]DTG as radioligand

| Compound | pIC50 |
| --- | --- |
| COc1ccc2c(c1)C(SCCN1CCN(c3ccccc3OC)CC1)CCC2 (stereo unspecified) [1-(2-Methoxy-phenyl)-4-[2-(7-methoxy-1,2,3,4-tetrahydro-naphthalen-1-ylsulfanyl)-ethyl]-piperazine] | 6.86 |
| COc1ccc2c(c1)C(CCCN1CCN(c3ccccn3)CC1)=CCC2 [1-[3-(7-Methoxy-3,4-dihydro-naphthalen-1-yl)-propyl]-4-pyridin-2-yl-piperazine] | 6.61 |
| COc1ccccc1N1CCN(CC/C=C2\CCCc3ccccc32)CC1 [1-{3-[3,4-Dihydro-2H-naphthalen-(1E)-ylidene]-propyl}-4-(2-methoxy-phenyl)-piperazine] | 7.26 |

The next lines start with the values.

| pIC50 | Compound |
| --- | --- |
| 6.90 | COc1ccc2c(c1)C(CCCN1CCN(c3ccccn3)CC1)CCC2 (stereo unspecified) [1-[3-(7-Methoxy-1,2,3,4-tetrahydro-naphthalen-1-yl)-propyl]-4-pyridin-2-yl-piperazine] |
| 6.64 | COc1ccc2c(c1)C(CCCN1CCN(c3ccccc3OC)CC1)=CCC2 [1-[3-(7-Methoxy-3,4-dihydro-naphthalen-1-yl)-propyl]-4-(2-methoxy-phenyl)-piperazine] |
| 7.28 | COc1ccccc1N1CCN(CC/C=C2\CCCc3c(OC)cccc32)CC1 [1-{3-[5-Methoxy-3,4-dihydro-2H-naphthalen-(1E)-ylidene]-propyl}-4-(2-methoxy-phenyl)-piperazine] |

— BindingDB's records for doi:10.1021/jm00006a013 (Universit&#224, 1995)
